Laboratory results reported in ChEMBL document CHEMBL3588813, “Antifungal Amphiphilic Aminoglycosides” (Medchemcomm, 2014).
In brackets after ≈: the same amount, converted by molar mass.

Key:
[1] = tested on: Staphylococcus aureus; assay: Antimicrobial activity against Staphylococcus aureus ATCC 25923 assessed as inhibition of bacterial growth incubated at 35 degC for 12 to 18 hrs; format: functional
[2] = tested on: Escherichia coli; assay: Antimicrobial activity against Escherichia coli ATCC 25922 assessed as inhibition of bacterial growth incubated at 35 degC for 12 to 18 hrs; format: functional
[3] = tested on: Enterococcus faecalis; assay: Antimicrobial activity against vancomycin-resistant Enterococcus faecalis ATCC 1299 assessed as inhibition of bacterial growth incubated at 35 degC for 12 to 18 hrs; format: functional
[4] = tested on: Staphylococcus aureus; assay: Antimicrobial activity against methicillin-resistant Staphylococcus aureus ATCC 33591 assessed as inhibition of bacterial growth incubated at 35 degC for 12 to 18 hrs; format: functional
[5] = tested on: Pseudomonas aeruginosa; assay: Antimicrobial activity against Pseudomonas aeruginosa ATCC 27853 assessed as inhibition of bacterial growth incubated at 35 degC for 12 to 18 hrs; format: functional
[6] = tested on: Fusarium graminearum; assay: Antimicrobial activity against Fusarium graminearum B4-5A using RPMI medium by microbroth dilution assay; format: functional
[7] = tested on: Fusarium graminearum; assay: Antimicrobial activity against Fusarium graminearum B4-5A using potato dextrose broth as growth medium and diluent; format: functional
[8] = tested on: Botrytis cinerea; assay: Antimicrobial activity against Botrytis cinerea using potato dextrose broth as growth medium and diluent; format: functional
[9] = Selectivity index, ratio of IC50 for mouse NIH/3T3 cells to MIC for Saccharomyces cerevisiae
[10] = tested on: Rhizopus stolonifer; assay: Antimicrobial activity against Rhizopus stolonifer using potato dextrose broth as growth medium and diluent; format: functional
[11] = tested on: Phoma; assay: Antimicrobial activity against Phoma spp. using potato dextrose broth as growth medium and diluent; format: functional
[12] = tested on: Fusarium graminearum; assay: Antimicrobial activity against Fusarium graminearum […] in wheat assessed as reduction in Fusarium head blight disease incidence at 1080 ug/ml pre-treated 24 hrs before infection; format: functional
[13] = tested on: Rhodotorula mucilaginosa; assay: Antimicrobial activity against Rhodotorula piliminae using potato dextrose broth as growth medium and diluent; format: functional
[14] = tested on: Fusarium graminearum; assay: Antimicrobial activity against Fusarium graminearum B4-5A infecrtion in wheat assessed as Fusarium head blight disease incidence at 1080 ug/ml pre-treated 24 hrs before infection (reference value: 61%); format: functional
[15] = tested on: Curvularia brachyspora; assay: Antimicrobial activity against Curvularia brachyspora using potato dextrose broth as growth medium and diluent; format: functional
[16] = tested on: Microdochium nivale; assay: Antimicrobial activity against Microdochium nivale using potato dextrose broth as growth medium and diluent; format: functional
[17] = tested on: Escherichia coli; assay: Antimicrobial activity against Escherichia coli ATCC 25922 using potato dextrose broth as growth medium and diluent; format: functional
[18] = tested on: Fusarium graminearum; assay: Antimicrobial activity against Fusarium graminearum B4-5A infecrtion in wheat assessed as Fusarium head blight disease incidence at 5 ug/ml pre-treated 24 hrs before infection (reference value: 61%); format: functional
[19] = tested on: Fusarium graminearum; assay: Antimicrobial activity against Fusarium graminearum B4-5A infection in wheat assessed as reduction in spikelet infection rate at 5 ug/ml pre-treated 24 hrs before infection; format: functional
[20] = Cytotoxic activity against mouse NIH/3T3 cells; format: cell-based, NIH3T3
[21] = tested on: Fusarium oxysporum; assay: Antimicrobial activity against Fusarium oxysporum using potato dextrose broth as growth medium and diluent; format: functional
[22] = Induction of hemolysis in sheep erythrocytes at 313 ug/ml; format: cell-based, Ovis aries, Erythrocyte; settings: read-out: Activity
[23] = tested on: Fusarium graminearum; assay: Antimicrobial activity against Fusarium graminearum B4-5A infecrtion in wheat assessed as Fusarium head blight disease incidence at 180 ug/ml pre-treated 24 hrs before infection (reference value: 61%); format: functional
[24] = tested on: Candida albicans; assay: Antimicrobial activity against Candida albicans 10231 using potato dextrose broth as growth medium and diluent; format: functional
[25] = Induction of hemolysis in sheep erythrocytes at 28 ug/ml; format: cell-based, Ovis aries, Erythrocyte; settings: read-out: Activity
[26] = Cytotoxic activity against human C8161.9 cells; format: cell-based
[27] = tested on: Globisporangium ultimum; assay: Antimicrobial activity against Pythium ultimum using potato dextrose broth as growth medium and diluent; format: functional
[28] = tested on: Fusarium graminearum; assay: Antimicrobial activity against Fusarium graminearum B4-5A infecrtion in wheat assessed as Fusarium head blight disease incidence at 30 ug/ml pre-treated 24 hrs before infection (reference value: 61%); format: functional
[29] = tested on: Fusarium graminearum; assay: Antimicrobial activity against Fusarium graminearum B4-5A infection in wheat assessed as reduction in spikelet infection rate at 30 ug/ml pre-treated 24 hrs before infection; format: functional
[30] = tested on: Staphylococcus aureus; assay: Antimicrobial activity against Staphylococcus aureus using potato dextrose broth as growth medium and diluent; format: functional
[31] = Selectivity index, ratio of IC50 for human C8161.9 cells to MIC for Saccharomyces cerevisiae
[32] = tested on: Cladosporium cladosporioides; assay: Antimicrobial activity against Cladosporium cladosporioides using potato dextrose broth as growth medium and diluent; format: functional
[33] = tested on: Ulocladium; assay: Antimicrobial activity against Ulocladium spp. using potato dextrose broth as growth medium and diluent; format: functional; settings: Alternaria sect. Ulocladium
[34] = tested on: Verticillium; assay: Antimicrobial activity against Verticillium spp. using potato dextrose broth as growth medium and diluent; format: functional

CCCCCCCCCC(=O)NC[C@H]1O[C@@H](O[C@@H]2[C@@H](O)[C@H](N)C[C@H](N)[C@H]2O[C@H]2O[C@H](CN)[C@@H](O)[C@H](O)[C@H]2N)[C@H](O)[C@@H]1O[C@H]1O[C@@H](CN)[C@@H](O)[C@H](O)[C@H]1N
MIC [1]: 16 µg/mL (≈ 20.8 µM)
MIC [2]: 32 µg/mL (≈ 41.7 µM)
MIC [3]: 64 µg/mL (≈ 83.3 µM)
MIC [4]: 125 µg/mL (≈ 163 µM)
MIC [5]: 16 µg/mL (≈ 20.8 µM)

CCCCCCCCCCCCCC(=O)NC[C@H]1O[C@@H](O[C@@H]2[C@@H](O)[C@H](N)C[C@H](N)[C@H]2O[C@H]2O[C@H](CN)[C@@H](O)[C@H](O)[C@H]2N)[C@H](O)[C@@H]1O[C@H]1O[C@@H](CN)[C@@H](O)[C@H](O)[C@H]1N
MIC [1]: 2 µg/mL (≈ 2.43 µM)
MIC [2]: 8 µg/mL (≈ 9.71 µM)
MIC [3]: 8 µg/mL (≈ 9.71 µM)
MIC [4]: 4 µg/mL (≈ 4.85 µM)
MIC [5]: 8 µg/mL (≈ 9.71 µM)

CCCCCCCCCCC(=O)OCC[C@H]1O[C@H](O[C@@H]2[C@@H](O)[C@H](O[C@H]3O[C@H](CN)[C@@H](O)[C@H](O)[C@H]3N)[C@@H](N)C[C@H]2N)[C@H](O)[C@@H](N)[C@@H]1O
MIC [6]: 62.5 µg/mL (≈ 93.9 µM)

CCCCCCCCSCC[C@H]1O[C@H](O[C@@H]2[C@@H](O)[C@H](O[C@H]3O[C@H](CN)[C@@H](O)[C@H](O)[C@H]3N)[C@@H](N)C[C@H]2N)[C@H](O)[C@@H](N)[C@@H]1O
MIC [6]: 15.6 µg/mL (≈ 24.9 µM)

Cc1ccc(S(=O)(=O)OCC[C@H]2O[C@H](O[C@@H]3[C@@H](O)[C@H](O[C@H]4O[C@H](CN)[C@@H](O)[C@H](O)[C@H]4O)[C@@H](N)C[C@H]3N)[C@H](O)[C@@H](N)[C@@H]2O)cc1
MIC [6]: > 500 µg/mL

CCCCO[C@H]1[C@H](N)[C@@H](O)[C@@H](O[C@@H]2[C@@H](O)[C@H](O[C@H]3O[C@H](CN)[C@@H](O)[C@H](O)[C@H]3N)[C@@H](N)C[C@H]2N)O[C@@H]1C
MIC [7]: > 500 µg/mL
MIC [6]: > 500 µg/mL

CCCCCCCCCCCCO[C@H]1[C@H](N)[C@@H](O)[C@@H](O[C@@H]2[C@@H](O)[C@H](O[C@H]3O[C@H](CN)[C@@H](O)[C@H](O)[C@H]3N)[C@@H](N)C[C@H]2N)O[C@@H]1C
MIC [7]: > 500 µg/mL
MIC [6]: > 500 µg/mL

CCCCCCCCO[C@H]1[C@H](N)[C@@H](O)[C@@H](O[C@@H]2[C@@H](O)[C@H](O[C@H]3O[C@H](CN)[C@@H](O)[C@H](O)[C@H]3N)[C@@H](N)C[C@H]2N)O[C@@H]1C
MIC [8]: 31.3 µg/mL (≈ 54 µM)
Selectivity Index [9]: 10
MIC [10]: 31.3 µg/mL (≈ 54 µM)
MIC [11]: 31.3 µg/mL (≈ 54 µM)
inhibition at 1080 µg/mL [12]: 82%
MIC [13]: 7.8 µg/mL (≈ 13.5 µM)
Activity [14]: 80%
MIC [15]: 31.3 µg/mL (≈ 54 µM)
MIC [16]: 3.9 µg/mL (≈ 6.73 µM)
MIC [17]: 250 µg/mL (≈ 431 µM)
Activity [18]: 76%
inhibition at 5 µg/mL [19]: 29%
IC50 ([20]; Mus musculus, NIH3T3): > 250 µg/mL
Activity ([20]; mouse, nih3t3): Dose-dependent effect
MIC [21]: 7.8 µg/mL (≈ 13.5 µM)
hemolysis at 313 ug/ml [22]: > 20%
Activity [23]: 76%
MIC [24]: 31.3 µg/mL (≈ 54 µM)
hemolysis at 28 ug/ml [25]: 2%
IC50 ([26]; Homo sapiens): > 250 µg/mL
Activity ([26]; human): Dose-dependent effect
MIC [27]: 15.6 µg/mL (≈ 26.9 µM)
Activity [28]: 70%
inhibition at 30 µg/mL [29]: 49%
MIC [30]: 62.5 µg/mL (≈ 108 µM)
Selectivity Index [31]: 10
MIC [7]: 7.8 µg/mL (≈ 13.5 µM)
MIC [32]: 31.3 µg/mL (≈ 54 µM)
MIC [6]: 31.5 µg/mL (≈ 54.3 µM)
MIC [33]: 7.8 µg/mL (≈ 13.5 µM)
MIC [34]: 15.2 µg/mL (≈ 26.2 µM)

NC[C@@H]1O[C@H](O[C@H]2[C@@H](O)[C@H](O[C@@H]3[C@@H](O)[C@H](N)C[C@H](N)[C@H]3O[C@H]3O[C@H](CN)[C@@H](O)[C@H](O)[C@H]3N)O[C@@H]2Cn2cc(CNC(=O)c3cc(-c4ccccc4)nc4ccccc34)nn2)[C@H](N)[C@@H](O)[C@@H]1O
MIC [1]: 8 µg/mL (≈ 8.64 µM)
MIC [2]: 32 µg/mL (≈ 34.6 µM)

CCCCCCC(=O)NC[C@H]1O[C@@H](O[C@@H]2[C@@H](O)[C@H](N)C[C@H](N)[C@H]2O[C@H]2O[C@H](CN)[C@@H](O)[C@H](O)[C@H]2N)[C@H](O)[C@@H]1O[C@H]1O[C@@H](CN)[C@@H](O)[C@H](O)[C@H]1N
MIC [1]: 2 µg/mL (≈ 2.76 µM)
MIC [2]: 16 µg/mL (≈ 22 µM)
MIC [3]: ≥ 250 µg/mL
MIC [4]: 125 µg/mL (≈ 172 µM)
MIC [5]: ≥ 250 µg/mL
MIC [6]: 62.5 µg/mL (≈ 86.1 µM)
